# Data published in patent publication US20190282497A1 (Bryn Pharma, LLC, priority 2018, published 2019).
# System: histamine induced nasal congestion
smiles,measurement,setting,value
"NCCc1c[nH]cn1 [Histamine, histamine]",nasal congestion and flow restriction pressure,"Group 1, 5 and 10 minutes post-histamine exposure",progressive increase in nasal congestion and flow restriction pressure
same,histamine induced congestion without epinephrine,"pilot study, no epinephrine, 60, 80 and 100 minute time points",remains elevated at significant levels
